Common to all, as to type: functional
Assay [1] relates to Rattus norvegicus. Description: Antihypertensive activity in spontaneously hypertensive rat assessed as reduction in mean arterial blood pressure at 3 mg/kg, po measured after 12 hrs.
The subject of assay [2] is Rattus norvegicus. Description: Antihypertensive activity in spontaneously hypertensive rat assessed as reduction in mean arterial blood pressure at 1.5 mg/kg, po measured after 6 hrs.
Assay [3] deals with Rattus norvegicus. As to the kind of experiment: Antihypertensive activity in spontaneously hypertensive rat assessed as reduction in mean arterial blood pressure at 1.5 mg/kg, po measured after 12 hrs.
Assay [4] deals with Rattus norvegicus. As to the kind of experiment: Antihypertensive activity in spontaneously hypertensive rat assessed as reduction in mean arterial blood pressure at 3 mg/kg, po measured after 6 hrs.
Assay [5] relates to Rattus norvegicus. Description: Antihypertensive activity in spontaneously hypertensive rat assessed as reduction in mean arterial blood pressure at 1.5 mg/kg, po measured after 6 hrs relative to nifedipine. More on the design: scale not given: the % may be the effect or the level left.
Assay [6] relates to Rattus norvegicus. As to the kind of experiment: Antihypertensive activity in spontaneously hypertensive rat assessed as reduction in mean arterial blood pressure at 3 mg/kg, po measured after 6 hrs relative to nifedipine. More on the design: scale not given: the % may be the effect or the level left.
In assay [7] the test system is Rattus norvegicus. As to the kind of experiment: Antihypertensive activity in spontaneously hypertensive rat assessed as reduction in mean arterial blood pressure at 3 mg/kg, po measured after 12 hrs relative to nifedipine. More on the design: scale not given: the % may be the effect or the level left.
Assay [8] deals with Rattus norvegicus. Description: Antihypertensive activity in spontaneously hypertensive rat assessed as reduction in mean arterial blood pressure at 1.5 mg/kg, po measured after 12 hrs relative to nifedipine. More on the design: scale not given: the % may be the effect or the level left.

In the case of `CCOC(=O)C1=C(C)N=C2OC(C)C(=O)N2C1c1ccccc1` (centres undefined), the Activity in assay [1] was 10.9 mmHg; in assay [2], 1.12 mmHg; in assay [3], 1.82 mmHg; in assay [4], 6.04 mmHg.

With `CCOC(=O)C1=C(C)N=C2NC(C)C(=O)N2C1c1cccc(C)c1` (centres undefined), the Activity was determined as 24.65 mmHg in assay [1]; 5.5 mmHg in assay [2]; 79.78% in assay [5]; 95.46% in assay [6]; 92.02% in assay [7]; 11.51 mmHg in assay [3]. Also, the Activity amounted to 92.95% in assay [8] and 18 mmHg in assay [4].

For the compound `CCOC(=O)C1=C(C)N=C2SC(C)C(=O)N2C1c1cccc(Cl)c1` (centres undefined), the Activity in assay [1] amounted to 7.2 mmHg; in assay [2], 1.16 mmHg; in assay [3], 1.41 mmHg; in assay [4], 5.37 mmHg.

As for `CCOC(=O)C1=C(C)N=C2OC(C)C(=O)N2C1c1ccc([N+](=O)[O-])cc1` (centres undefined), the Activity in assay [1] came out at 12.97 mmHg; in assay [2], 1.8 mmHg; in assay [3], 2.59 mmHg; in assay [4], 7.22 mmHg.

For `COC(=O)C1=C(C)NC(C)=C(C(=O)OC)C1c1ccccc1[N+](=O)[O-]` [NIFEDIPINE], the Activity in assay [1] is 27.58 mmHg; in assay [2], 7.47 mmHg; in assay [3], 13.33 mmHg; in assay [4], 18.96 mmHg.

For the compound `CCOC(=O)C1=C(C)N=C2SC(C)C(=O)N2C1c1ccc(C)c(C)c1` (centres undefined), the Activity in assay [1] is 8.24 mmHg; in assay [2] it was 1.62 mmHg; in assay [3], 2.2 mmHg; in assay [4], 5.76 mmHg.

Regarding `CCOC(=O)C1=C(C)N=C2OC(C)C(=O)N2C1c1cccc([N+](=O)[O-])c1` (centres undefined), the Activity in assay [1] is 15.16 mmHg; in assay [2], 2.01 mmHg; in assay [3], 4.1 mmHg; in assay [4] it was 8.19 mmHg.

`CCOC(=O)C1=C(C)N=C2NC(C)C(=O)N2C1c1ccccc1` (centres undefined): the Activity in assay [1] was determined as 25.38 mmHg; in assay [2] it was 5.96 mmHg; in assay [5] it was 79.78%; in assay [6], 95.46%; in assay [7] it was 92.02%; in assay [3] it was 12.39 mmHg. In addition, the Activity was found to be 92.95% in assay [8] and 18.1 mmHg in assay [4].

On to `CCOC(=O)C1=C(C)N=C2SC(C)C(=O)N2C1c1ccccc1O` (centres undefined), for which the Activity in assay [1] came out at 9.18 mmHg; in assay [2] it was 0.58 mmHg; in assay [3], 1.29 mmHg; in assay [4], 4.47 mmHg.

The values above are taken from ChEMBL document CHEMBL4699566, “Pharmacophore modeling, design, and synthesis of potent antihypertensives, oxazolo/thiazolo-[3,2-a]-pyrimidin-3(2H)-one, and 1,5-dihydroimidazo-[1,2-a]-pyrimidin-3(2H)-one derivatives: A pilot trial” (2020).
